Measured values published in the supplement of paper PMC10307832.

The cell lines below were run with O=C(/C=C/c1cccnc1)NCCCCC1CCN(C(=O)c2ccccc2)CC1 [Daporinad] + CC(C)C[C@H](NC(=O)[C@H](Cc1ccccc1)NC(=O)c1cnccn1)B(O)O [Bortezomib] (partner 0.002 µM) (assay: relative viability (nuclei count vs DMSO), 5 days (fraction); higher = more cells survive). Conditions: first compound 0.01581 µM.
Procedure, shortened: (§1)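 Each reported value is a median over duplicate plates. It expresses relative viability: treated-well nuclei count divided by vehicle-well nuclei count. Lung cancer cell lines in 1536-well plates were dosed by pin tool a day after seeding, alone with one drug or with a fixed anchor-drug dose plus five library-drug doses (not always all listed) in √10 steps, and nuclei were counted after 5 days.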
LU99A showed a relative viability of 1.44.
Cell Line BEN has a relative viability of 1.12.
Cell Line HARA has a relative viability of 0.345.
Work on NCI-H727 yielded a relative viability of 0.858.
Cell Line NCI-H1299 has a relative viability of 1.04.
Work on NCI-H1792 yielded a relative viability of 1.
Cell Line NCI-H1563 has a relative viability of 0.691.
Cell Line ABC-1 has a relative viability of 0.309.

The cell lines below were run with O=C(/C=C/c1cccnc1)NCCCCC1CCN(C(=O)c2ccccc2)CC1 [Daporinad] + Cc1nc(Nc2ncc(C(=O)Nc3c(C)cccc3Cl)s2)cc(N2CCN(CCO)CC2)n1 [Dasatinib] (partner 0.075 µM) in the same assay as above. Conditions: first compound 0.0005 µM.
Procedure, shortened: as §1
In the case of NCI-H522, the relative viability is reported as 1.01.
Cell Line NCI-H2342 has a relative viability of 0.316.
In the case of NCI-H838, the relative viability is reported as 0.276.
For NCI-H1650, the relative viability was 0.379.
Work on NCI-H1993 yielded a relative viability of 0.548.
NCI-H441 showed a relative viability of 0.665.
PC-14 showed a relative viability of 0.276.
Cell Line LCLC-103H has a relative viability of 0.546.
NCI-H596 was tested, and the relative viability was 0.68.
For NCI-H2126, the relative viability was 0.681.
In the case of EMC-BAC-2, the relative viability is reported as 0.359.
NCI-H2085 gave a relative viability of 0.268.
In the case of HCC-366, the relative viability is reported as 0.697.
NCI-H1666 was tested, and the relative viability was 0.746.
For NCI-H647, the relative viability was 0.146.
Cell Line LK-2 has a relative viability of 0.266.
For NCI-H2087, the relative viability was 0.787.
With NCI-H358 the relative viability was 0.135.
With NCI-H2170 the relative viability was 0.631.
Cell Line H3255 has a relative viability of 0.391.
Work on COR-L23 yielded a relative viability of 0.541.
COR-L 105 was tested, and the relative viability was 0.317.
With LOU-NH91 the relative viability was 0.544.
Work on ChaGo-K-1 yielded a relative viability of 0.672.
In the case of NCI-H1793, the relative viability is reported as 0.43.
NCI-H2405 gave a relative viability of 0.168.
For HOP-62, the relative viability was 0.62.
For SK-MES-1, the relative viability was 0.417.
Work on LU99A yielded a relative viability of 0.539.
Cell Line BEN has a relative viability of 0.316.
HARA showed a relative viability of 0.3.
With SW 900 the relative viability was 0.53.
For NCI-H727, the relative viability was 0.475.
NCI-H1395 was tested, and the relative viability was 0.361.
For NCI-H1792, the relative viability was 0.617.
For NCI-H1623, the relative viability was 0.537.
NCI-H1563 gave a relative viability of 0.43.
With ABC-1 the relative viability was 0.481.
NCI-H1944 gave a relative viability of 0.228.

Same assay, conditions: first compound 0.001581 µM
Cell Line NCI-H522 has a relative viability of 0.924.
NCI-H2342 gave a relative viability of 0.299.
NCI-H838 was tested, and the relative viability was 0.29.
For NCI-H1650, the relative viability was 0.366.
NCI-H1993 was tested, and the relative viability was 0.481.
Cell Line NCI-H441 has a relative viability of 0.614.
In the case of PC-14, the relative viability is reported as 0.315.
In the case of LCLC-103H, the relative viability is reported as 0.411.
NCI-H596 showed a relative viability of 0.677.
For NCI-H2126, the relative viability was 0.57.
EMC-BAC-2 showed a relative viability of 0.362.
NCI-H2085 gave a relative viability of 0.244.
Work on HCC-366 yielded a relative viability of 0.738.
Cell Line NCI-H1666 has a relative viability of 0.871.
NCI-H647 gave a relative viability of 0.27.
In the case of LK-2, the relative viability is reported as 0.343.
Cell Line NCI-H2087 has a relative viability of 1.17.
NCI-H358 was tested, and the relative viability was 0.174.
For NCI-H2170, the relative viability was 0.465.
Cell Line H3255 has a relative viability of 0.387.
Work on COR-L23 yielded a relative viability of 0.575.
COR-L 105 showed a relative viability of 0.376.
LOU-NH91 gave a relative viability of 0.497.
ChaGo-K-1 showed a relative viability of 0.5.
In the case of NCI-H1793, the relative viability is reported as 0.397.
NCI-H2405 showed a relative viability of 0.226.
With HOP-62 the relative viability was 0.809.
Work on SK-MES-1 yielded a relative viability of 0.474.
LU99A gave a relative viability of 0.492.
BEN gave a relative viability of 0.251.
Work on HARA yielded a relative viability of 0.285.
Cell Line SW 900 has a relative viability of 0.574.
For NCI-H727, the relative viability was 0.327.
For NCI-H1395, the relative viability was 0.464.
For NCI-H1792, the relative viability was 0.815.
For NCI-H1623, the relative viability was 0.463.
NCI-H1563 was tested, and the relative viability was 0.423.
Cell Line ABC-1 has a relative viability of 0.595.
NCI-H1944 gave a relative viability of 0.232.

Same assay, conditions: first compound 0.005 µM
NCI-H522 was tested, and the relative viability was 0.88.
Work on NCI-H2342 yielded a relative viability of 0.339.
With NCI-H838 the relative viability was 0.296.
NCI-H1650 showed a relative viability of 0.325.
NCI-H1993 was tested, and the relative viability was 0.664.
NCI-H441 was tested, and the relative viability was 0.618.
Cell Line PC-14 has a relative viability of 0.293.
LCLC-103H was tested, and the relative viability was 0.465.
Work on NCI-H596 yielded a relative viability of 0.692.
NCI-H2126 showed a relative viability of 0.547.
EMC-BAC-2 gave a relative viability of 0.387.
NCI-H2085 gave a relative viability of 0.267.
HCC-366 was tested, and the relative viability was 0.646.
Cell Line NCI-H1666 has a relative viability of 0.674.
With NCI-H647 the relative viability was 0.282.
Cell Line LK-2 has a relative viability of 0.33.
NCI-H2087 gave a relative viability of 0.934.
For NCI-H358, the relative viability was 0.175.
For NCI-H2170, the relative viability was 0.616.
With H3255 the relative viability was 0.491.
COR-L23 gave a relative viability of 0.38.
Cell Line COR-L 105 has a relative viability of 0.346.
LOU-NH91 gave a relative viability of 0.654.
With ChaGo-K-1 the relative viability was 0.476.
NCI-H1793 gave a relative viability of 0.418.
NCI-H2405 was tested, and the relative viability was 0.231.
In the case of HOP-62, the relative viability is reported as 0.721.
With SK-MES-1 the relative viability was 0.315.
LU99A showed a relative viability of 0.708.
BEN was tested, and the relative viability was 0.318.
HARA was tested, and the relative viability was 0.284.
Work on SW 900 yielded a relative viability of 0.716.
In the case of NCI-H727, the relative viability is reported as 0.437.
With NCI-H1395 the relative viability was 0.419.
NCI-H1792 gave a relative viability of 0.477.
For NCI-H1623, the relative viability was 0.542.
Cell Line NCI-H1563 has a relative viability of 0.497.
ABC-1 was tested, and the relative viability was 0.511.
Cell Line NCI-H1944 has a relative viability of 0.221.

Same assay, conditions: first compound 0.01581 µM
Work on NCI-H522 yielded a relative viability of 0.843.
Cell Line NCI-H2342 has a relative viability of 0.295.
For NCI-H838, the relative viability was 0.296.
NCI-H1650 was tested, and the relative viability was 0.247.
Cell Line NCI-H1993 has a relative viability of 0.676.
With NCI-H441 the relative viability was 0.662.
For PC-14, the relative viability was 0.363.
LCLC-103H gave a relative viability of 0.502.
NCI-H596 showed a relative viability of 0.576.
With NCI-H2126 the relative viability was 0.727.
EMC-BAC-2 gave a relative viability of 0.319.
With NCI-H2085 the relative viability was 0.284.
HCC-366 gave a relative viability of 0.738.
NCI-H1666 was tested, and the relative viability was 0.721.
NCI-H647 gave a relative viability of 0.196.
In the case of LK-2, the relative viability is reported as 0.193.
With NCI-H2087 the relative viability was 0.923.
NCI-H358 was tested, and the relative viability was 0.158.
NCI-H2170 gave a relative viability of 0.566.
H3255 was tested, and the relative viability was 0.443.
For COR-L23, the relative viability was 0.183.
COR-L 105 was tested, and the relative viability was 0.416.
LOU-NH91 showed a relative viability of 0.745.
Cell Line ChaGo-K-1 has a relative viability of 0.278.
NCI-H1793 gave a relative viability of 0.499.
In the case of NCI-H2405, the relative viability is reported as 0.252.
Cell Line HOP-62 has a relative viability of 0.587.
Cell Line SK-MES-1 has a relative viability of 0.437.
Cell Line LU99A has a relative viability of 0.547.
In the case of BEN, the relative viability is reported as 0.414.
HARA gave a relative viability of 0.339.
For SW 900, the relative viability was 0.436.
Cell Line NCI-H727 has a relative viability of 0.364.
